# Measurements as given in publication PMC7961380, “A Systematic Study of the In Vitro Pharmacokinetics and Estimated Human In Vivo Clearance of Indole and Indazole-3-Carboxamide Synthetic Cannabinoid Receptor Agonists Detected on the Illicit Drug Market” (Molecules, 2021).
# “And” between values parts separate entries of the source, which are not always exact repeats. Equal entries are not always repeated. Where two headings read alike, the source gives them in different places.
# Tests used:
# [1] = Chromatographic hydrophobicity index (CHI) log D at pH 7.4; details: for chromatographic logD: reversed-phase HPLC, Acquity BEH C18 column
# Procedure: Chromatographic hydrophobicity index (CHI) log D samples (see below) were analysed using high-performance liquid chromatography (HPLC) with a Shimadzu Nexera X2 HPLC coupled to a Shimadzu SPD-30 MA photodiode array detector (PDA) (Shimadzu, Kyoto, Japan). […] The sample chamber was maintained at 25 °C. Gradient elution was performed, with mobile phase (MP) consisting of ammonium acetate in water (10 mM, pH 7.4) (MP A) and acetonitrile (MP B).
# A calibration mix of ten compounds at 10 µg mL^−1 in 1:1 (v/v) water:ACN was used (theophylline, phenyltetrazole, benzimidazole, colchicine, phenyltheophilline, acetophenone, indole, propiophenone, butyrophenone and valerophenone (all Sigma-Aldrich)). Test compounds were prepared at 0.25 mM in 1:1 (v/v) water:ACN. Samples (n = 2 for calibration standards; n = 1 for test compounds) were analysed using UPLC-PDA as described above. Retention times of calibration compounds are used to calculate retention factor (k), which is plotted against literature CHI values for each compound.
# Where tr is the retention time of the analyte and t0 is the retention time of an unretained compound
# Calculation of chromatographic hydrophobicity index (CHI)
# CHI = (𝑘 x slope) − intercept Eqn.4
# Where k is the retention factor of the analyte.
# Calculation of CHI Log D [1]
# Where CHI is the chromatographic hydrophobicity index obtained using Equation 4
# [2] = HLM, ref 14 (THJ-018, THJ-2201), 15 (NNEI, MN-18), 106 (NM-2201), 107 (BIM-2201), 108 (STS-135), 16 (AB-PINACA, 5F-AB-PINACA), 54 (5F-MDMB-PINACA), 69 (AB-FUBINACA), 17 (ADB-FUBINACA), 97 (FDU-PB-22, FUB-PB-22), cited from earlier work; for CLint micr / t1/2: 95 (Cumyl-PICA, 5F-Cumyl-PICA), 109 (5F-APP-PICA, 5F-APP-PINACA; for CLint micr: 73 (5F-AMB-PINACA); for t1/2 / CLint: 57 (AMB-4en-PICA); for t1/2: 73 (AMB-PINACA, 5F-AMB-PINACA)
# [3] = Metabolic stability, pooled human liver microsome incubations; details: for Predicted In Vivo Hepatic Clearance, CLH: from pHLM CLint, well-stirred model with plasma fu, Q 21 mL min^−1 kg^−1; for CLint scaled at 0.5 µM / half-life at 0.5 µM: human, microsomes; for CLint scaled at 0.5 µM: pH 7.4, Intrinsic clearance; for half-life at 0.5 µM: pH 7.4, T1/2 (min), pHLM 0.5 mg mL^−1, 0.5 µM, NADPH, 37 °C; for half-life at 0.5 µM / Microsomal Intrinsic Clearance, CLint micr: n ≥ 3 ± SD
# [4] = Plasma protein binding by equilibrium dialysis; type: in vitro ADME, human; details: human, pooled human plasma, pH 7.4, equilibrium dialysis 5 h, 37 °C
# [5] = Short-term plasma stability with and without esterase inhibitors; details: human, pH 7.4, Parent Compound Remaining (%), 3 h, 37 °C
# [6] = Metabolic stability, pooled human cryopreserved hepatocyte incubations; details: human, hepatocytes; for CLint scaled at 0.5 µM: Intrinsic clearance, pHHeps, alternative hepatocyte cell density 99x10^6 hepatocytes per gram liver; for half-life at 0.5 µM: T1/2 (min), pHHeps 0.25 million cells mL^−1, 0.5 µM, 37 °C, n ≥ 3 ± SD
# [7] = tested on: pooled human cryopreserved hepatocytes (pHHeps); experiment: as above; details: for Predicted In Vivo Hepatic Clearance, CLH: from pHHeps CLint, well-stirred model with plasma fu, Q 21 mL min^−1 kg^−1
# [8] = pHLM, vs refs 69 (AB-FUBINACA), 54 (5F-MDMB-PINACA)
# [9] = 10 µg mL^−1, read-out: PPB (%) (converted)
# [10] = plasma, read-out: Fraction Unbound (fu)
# [11] = pHLM, alternative microsomal scaling factor 32 mg microsomal protein per gram liver
# [12] = pHLM, alternative microsomal scaling factor 45 mg microsomal protein per gram liver
# [13] = pHLM, scaling factor 32 mg microsomal protein per gram liver
# [14] = pHLM, scaling factor 45 mg microsomal protein per gram liver
# [15] = plasma, No Esterase Inhibitors, pH 7.4, pooled human plasma
# [16] = pHHeps, 99x10^6 hepatocytes per gram liver
compound,measurement,setting,value
"COC(=O)C(NC(=O)c1nn(CCCCF)c2ccccc12)C(C)(C)C (centres unmarked) [4F-MDMB-BINACA (4), methyl 2-[1-(4-fluorobutyl)-1H-indazole-3-carboxamido]-3,3-dimethylbutanoate]",chromatographic logD,[1],4.18
"COC(=O)[C@@H](NC(=O)c1nn(CCCCCF)c2ccccc12)C(C)C [5F-AMB-PINACA (10), methyl [1-(5-fluoropentyl)-1H-indazole-3-carbonyl]valinate]",CLint micr,[2],670 µL/min/mg
same,t1/2,[2],1.0 min
same,chromatographic logD,[1],4.07
"COC(=O)C(NC(=O)c1cn(CCCCCF)c2ccccc12)C(C)(C)C (centres unmarked) [5F-MDMB-PICA (3), methyl 2-[1-(5-fluoropentyl)-1H-indole-3-carboxamido]-3,3-dimethylbutanoate]",chromatographic logD,[1],4.06
"COC(=O)C(NC(=O)c1nn(CCCCCF)c2ccccc12)C(C)(C)C (centres unmarked) [5F-MDMB-PINACA (2), methyl 2-[1-(5-fluoropentyl)-1H-indazole-3-carboxamido]-3,3-dimethylbutanoate]",CLH prediction lower than literature prediction without PPB,[3]; [8],4 fold
same,EH prediction lower than literature prediction without PPB,[3]; [8],4 fold
same,CLint micr,[2],271 µL/min/mg
same,t1/2,[2],3.1 min
same,CLint,[2],256.2 mL/min/kg
same,chromatographic logD,[1],4.5
"C=CCCCn1nc(C(=O)N[C@H](C(=O)OC)C(C)(C)C)c2ccccc21 [(S)-MDMB-4en-PINACA (5), methyl 3,3-dimethyl-2-[1-(pent-4-en-1-yl)-1H-indazole-3-carboxamido] butanoate]","fraction unbound at 5 h, 10 µg mL^−1",[4]; [9],0.01
same,"fraction unbound at 5 h, 10 µg mL^−1",[4]; [10],0.01 ± 0.0001
same,"Predicted In Vivo Hepatic Clearance, CLH",[3],2.66 ± 0.37 mL/min/kg
same,"Hepatic extraction ratio, EH",[3]; from pHLM incubations,0.13 ± 0.018
same,CLint scaled at 0.5 µM,[3]; [11],186 mL/min/kg
same,CLint scaled at 0.5 µM,[3]; [12],262 ± 42.3 mL/min/kg
same,half-life at 0.5 µM,[3],6.3 ± 1 min
same,"% parent compound remaining, Average","[3]; pHLM, 3 min",72.3%
same,"% parent compound remaining, Average","[3]; pHLM, 6 min",52.7%
same,"% parent compound remaining, Average","[3]; pHLM, 9 min",36.7%
same,"% parent compound remaining, Average","[3]; pHLM, 15 min",18.6%
same,"% parent compound remaining, Average","[3]; pHLM, 30 min",3.1%
same,"Microsomal Intrinsic Clearance, CLint micr",[3]; pHLM,0.226 ± 0.037 mL min^−1 mg Microsomal Protein^−1
same,"Hepatic extraction ratio, EH",[3]; [13],0.08 ± 0.012
same,"Predicted in vivo hepatic clearance, CLH",[3]; [13],1.71 mL/min/kg
same,"Hepatic extraction ratio, EH",[3]; [14],0.11 ± 0.016
same,"Predicted in vivo hepatic clearance, CLH",[3]; [14],2.32 ± 0.33 mL/min/kg
same,"remaining at 3 h, 5 µM","[5]; plasma, Esterase Inhibitors, pH 7.4, BNPP and PMSF 500 µM each",89 ± 3.3%
same,"remaining at 3 h, 5 µM",[5]; [15],94.8 ± 0.7%
same,CLint scaled at 0.5 µM,[6],632 mL/min/kg
same,half-life at 0.5 µM,[6],12 ± 2.6 min
same,"Predicted In Vivo Hepatic Clearance, CLH",[7],5.11 ± 0.89 mL/min/kg
same,"Hepatic extraction ratio, EH",[7]; from pHHeps incubations,0.24 ± 0.042
same,"Hepatic extraction ratio, EH",[7]; [16],0.23
same,"Predicted in vivo hepatic clearance, CLH",[7]; [16],4.82 mL/min/kg
same,"% parent compound remaining, Average","[7]; pHHeps, 3 min",79.7%
same,"% parent compound remaining, Average","[7]; pHHeps, 6 min",69.0%
same,"% parent compound remaining, Average","[7]; pHHeps, 9 min",56.7%
same,"% parent compound remaining, Average","[7]; pHHeps, 15 min",41.1%
same,"% parent compound remaining, Average","[7]; pHHeps, 30 min",17.1%
same,"% parent compound remaining, Average","[7]; pHHeps, 45 min",7.6%
same,"% parent compound remaining, Average","[7]; pHHeps, 60 min",3.4%
COC(=O)[C@@H](NC(=O)c1nn(Cc2ccc(F)cc2)c2ccccc12)C(C)(C)C [(S)-MDMB-FUBINACA (6)],"fraction unbound at 5 h, 10 µg mL^−1",[4]; [9],0.005
same,"fraction unbound at 5 h, 10 µg mL^−1",[4]; [10],0.005 ± 0.0008
same,"Predicted In Vivo Hepatic Clearance, CLH",[3],0.87 ± 0.18 mL/min/kg
same,"Hepatic extraction ratio, EH",[3]; from pHLM incubations,0.04 ± 0.009
same,CLint scaled at 0.5 µM,[3]; [11],111 mL/min/kg
same,CLint scaled at 0.5 µM,[3]; [12],156 mL/min/kg
same,half-life at 0.5 µM,[3],11 ± 2.4 min
same,"% parent compound remaining, Average","[3]; pHLM, 3 min",70.2%
same,"% parent compound remaining, Average","[3]; pHLM, 6 min",64.2%
same,"% parent compound remaining, Average","[3]; pHLM, 9 min",55.8%
same,"% parent compound remaining, Average","[3]; pHLM, 15 min",34.3%
same,"% parent compound remaining, Average","[3]; pHLM, 30 min",16.4%
same,"Microsomal Intrinsic Clearance, CLint micr",[3]; pHLM,0.135 ± 0.030 mL min^−1 mg Microsomal Protein^−1
same,"Hepatic extraction ratio, EH",[3]; [13],0.03 ± 0.006
same,"Predicted in vivo hepatic clearance, CLH",[3]; [13],0.54 ± 0.12 mL/min/kg
same,"Hepatic extraction ratio, EH",[3]; [14],0.04 ± 0.008
same,"Predicted in vivo hepatic clearance, CLH",[3]; [14],0.75 ± 0.16 mL/min/kg
same,"remaining at 3 h, 5 µM","[5]; Esterase Inhibitors, pH 7.4, BNPP and PMSF 500 µM each",91.6 ± 2.2%
same,"remaining at 3 h, 5 µM",[5]; [15],94.2 ± 6.3%
same,CLint scaled at 0.5 µM,[6],275 mL/min/kg
same,half-life at 0.5 µM,[6],26 ± 5 min
same,"Predicted In Vivo Hepatic Clearance, CLH",[7],1.39 mL/min/kg and 1.39 ± 0.27 mL/min/kg
same,"Hepatic extraction ratio, EH",[7]; from pHHeps incubations,0.07 and 0.07 ± 0.013
same,"Hepatic extraction ratio, EH",[7]; [16],0.06 ± 0.012
same,"Predicted in vivo hepatic clearance, CLH",[7]; [16],1.29 ± 0.25 mL/min/kg
same,"% parent compound remaining, Average","[7]; pHHeps, 3 min",90.3%
same,"% parent compound remaining, Average","[7]; pHHeps, 6 min",73.3%
same,"% parent compound remaining, Average","[7]; pHHeps, 9 min",80.1%
same,"% parent compound remaining, Average","[7]; pHHeps, 15 min",73.3%
same,"% parent compound remaining, Average","[7]; pHHeps, 30 min",38.8%
same,"% parent compound remaining, Average","[7]; pHHeps, 45 min",17.3%
same,"% parent compound remaining, Average","[7]; pHHeps, 60 min",9.1%
"CC(C)C(NC(=O)c1nn(CC2CCCCC2)c2ccccc12)C(N)=O (centres unmarked) [AB-[…] (11), N-[1-amino-3-methyl-1-oxobutan-2-yl]-1-(cyclohexylmethyl)-1H-indazole-3-carboxamide]",chromatographic logD,[1],3.71
"C=CCCCn1cc(C(=O)NC(C(=O)OC)C(C)C)c2ccccc21 (centres unmarked) [AMB-4en-PICA (7), methyl 3-methyl-2-[(1-pent-4-enylindole-3-carbonyl)amino] butanoate]",t1/2,[2],2.1 min
same,CLint,[2],291 mL/min/kg
same,chromatographic logD,[1],3.97
"COC(=O)[C@@H](NC(=O)c1cn(CC2CCCCC2)c2ccccc12)C(C)C [AMB-CHMICA (9), methyl [1-(cyclohexylmethyl)-1H-indole-3-carbonyl]valinate]",chromatographic logD,[1],4.77
"COC(=O)[C@@H](NC(=O)c1nn(Cc2ccc(F)cc2)c2ccccc12)C(C)C [AMB-FUBINACA (1), methyl [1-(4-fluorobenzyl)-1H-indazole-3-carbonyl]valinate]",chromatographic logD,[1],4.28
"C=CCCCn1cc(C(=O)NC(C(=O)OC)C(C)(C)C)c2ccccc21 (centres unmarked) [MDMB-4en-PICA (12), methyl 3,3-dimethyl-2-[1-(pent-4-en-1-yl)-1H-indole-3-carboxamido]butanoate]",chromatographic logD,[1],4.4
"methyl 2-[1-(5-fluoropentyl)-1H-indazole-3-carboxamido]-3,3-dimethylbutanoate [MDMB-FUBINACA (6)]",Experimental Log D7.4,"[1]; CHI log D, determined for the (S)-enantiomer, n = 1",4.69
